What all share (assay): growth of human tumour cells (NCI), 48 h
Assay [1] concerns SNB-75 CNS.
In assay [2] the test system is SK-MEL-2 melanoma.
In assay [3] the test system is A549 NSCLC.
Assay [4] has as its system TK-10 renal.
The subject of assay [5] is IGROV1 ovarian.
Assay [6] relates to LXFL 529 NSCLC.
Assay [7] deals with KM20L2 colon.
In assay [8] the test system is MDA-MB-435.
The test system of assay [9] is HS 578T breast.
The test system of assay [10] is DU-145 prostate.

The structures appear in SMILES notation.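 Interpolation was linear, between the two tested concentrations surrounding the appropriate level; five concentrations were tested over 48 hours in 96-well plates. GI50: concentration for 50% inhibition of growth. TGI: total growth inhibition.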 A value given as a limit tells only on which side of the number the result lay.

With `CCCCCCCCCCCCCP(=O)(O)NCC(N)=O`, the TGI in [1], in [2], in assay [3], in assay [4], in assay [5] and in assay [6] was more than 100 µM in each case. Moreover, in assay [7], the TGI was more than 100 µM.

As for `C=C1CCC2[C@@H](CCC3[C@]2(C)CCC[C@]3(C)C(=O)OC)[C@@H]1CC=O` (stereo partly specified), the figures for the GI50 in [1], in assay [3] and in [4] were 37.1 µM, 62 µM and 31 µM, respectively. In addition, the TGI in assay [1] is more than 100 µM; in assay [2], 91.7 µM; in assay [3], more than 100 µM; in [4], 77.5 µM; in [5], more than 100 µM; in assay [6], more than 100 µM. Also, the TGI in assay [7] came to 62.7 µM.

As for `COc1ccc(C(Cl)=C(c2ccc(OCCN(C)C)cc2)c2ccc(OCCN(C)C)cc2)cc1`, the TGI in assay [1] amounted to 3.29 µM; in assay [2], 3.12 µM; in assay [3] it was 3.67 µM; in assay [4] it was 31.1 µM; in [5] it was 13.3 µM; in [7], 2.74 µM.

As to `O=C(NC1CCCC1=O)c1ccccc1` (stereo unspecified), the TGI in assay [1], in [2], in assay [3], in [4], in assay [5] and in [7] was more than 100 µM in each case.

Consider `Cc1cc(N(CCC#N)CCC#N)ccc1/C=C1/N=C(c2ccccc2)N(N)C1=O`, for which the TGI was 64.9 µM in [1]; more than 100 µM in [2]; more than 100 µM in assay [3]; more than 100 µM in [4]; more than 100 µM in assay [5]; more than 100 µM in assay [6]. This compound came in with a TGI in [7] of more than 100 µM.

As for `N#Cc1ccc(N=Cc2c([O-])ccc3ccccc23)cc1.[C-]#[O+].[C-]#[O+].[Ir]`, the GI50 was 11 µM in [1]; 20.8 µM in assay [3]; 4.35 µM in assay [4]; 14.1 µM in [5]; 1.84 µM in assay [6]; 16 µM in [7]. For the same compound, the TGI in assay [1] was 24.9 µM; in assay [3], 38.1 µM; in assay [4], 13.5 µM; in [5] it was 27.9 µM; in assay [6] it was 4.32 µM; in [7] it was 29.5 µM.

Consider `COc1cc2nc(NCCCCCNC(=O)c3ccco3)nc(N)c2cc1OC`, for which the TGI in assay [1] was 54.2 µM; in assay [2] it was 36.5 µM; in assay [3], more than 100 µM; in assay [4], more than 100 µM; in assay [5], more than 100 µM; in [7] it was more than 100 µM.

With `CN1COc2c(n(C)c(=O)[nH]c2=O)C1`, the TGI in assay [1], in assay [2], in assay [3], in [4], in assay [5] and in [6] was more than 100 µM throughout. In assay [7], the TGI was more than 100 µM.

With `CN(C)CCC(/C=C/c1ccccc1)=N\Nc1ccc(Cl)cc1Cl`, the TGI was 18.8 µM in [1]; 26.7 µM in [2]; 30.5 µM in [3]; 27.2 µM in assay [4]; 20.9 µM in [5]; 22.8 µM in [6].

As for `COC(CN1C=C(Sc2ccccc2)CC1)OC`, the TGI is 52.7 µM in [1]; 44.8 µM in [2]; more than 100 µM in assay [3]; more than 100 µM in [4]; more than 100 µM in assay [5]; more than 100 µM in assay [7].

Regarding `COC(=O)C(C)(C)N=CN(C)C`, the TGI in assay [1], in assay [2], in assay [3], in assay [4], in assay [5] and in assay [6] was more than 100 µM in each case. In addition, the TGI in assay [7] was more than 100 µM.

With `c1ccc(P(=Nc2ccccc2N=P(c2ccccc2)(c2ccccc2)c2ccccc2)(c2ccccc2)c2ccccc2)cc1`, the TGI in [1] came to 2.09 µM; in assay [3], 12.6 µM; in assay [5], 22.8 µM; in assay [6] it was 12.1 µM; in [7], 10.3 µM.

Regarding `CC1(C)C2CCC13CS(=O)(=O)N1O[C@]13C(=O)O2` (stereo partly specified), the TGI in assay [1], in assay [2], in [3], in assay [4], in assay [5] and in assay [6] was more than 100 µM each time. The TGI in assay [7] was more than 100 µM.

For `COC(=O)CC1NC(=O)C1C1(C)OCCO1` (stereo unspecified), the TGI in assay [1] was 97.7 µM; in [2], more than 100 µM; in [3], more than 100 µM; in assay [4], more than 100 µM; in [5] it was more than 100 µM; in assay [6] it was more than 100 µM. For the same compound, the TGI in assay [7] was more than 100 µM.

On to `C/C=C(\C)c1cc(O)c(C)c2c1Oc1cc(O)c(Cl)c(C)c1C(=O)O2`, for which the TGI worked out at 53.3 µM in assay [1]; 41.8 µM in assay [2]; 74 µM in assay [3]; 30.4 µM in assay [4]; 60 µM in assay [6]; 35.2 µM in [7].

Regarding `COc1cc(-c2cc(-c3cc([N+](=O)[O-])c(/C=N/NC(=O)c4ccncc4)o3)ccc2OC)ccc1C`, the TGI in [1], in assay [2], in assay [3], in assay [4], in assay [5] and in assay [6] was more than 100 µM in each case. Also, the TGI in [7] was more than 100 µM.

For the compound `O=C([CH-]C(=O)c1ccccc1)c1ccccc1.O=C([CH-]C(=O)c1ccccc1)c1ccccc1.[OH-].[OH-].[Ti+4]`, the GI50 was 49.1 µM in assay [1]; 76.5 µM in [2]; more than 100 µM in [3]; more than 100 µM in assay [4]; more than 100 µM in [5]; more than 100 µM in [7]. The TGI in assay [1], in assay [2], in assay [3], in [4], in assay [5] and in assay [7] was more than 100 µM throughout.

Consider `CCCCCCN(N)C(=O)CC#N`, for which the TGI in assay [1], in assay [3], in [4], in assay [5], in assay [6] and in assay [7] was more than 100 µM in each case.

With `Fc1cccc(C2SCc3nc4ccccc4n32)c1F` (stereo unspecified), the TGI in assay [1] was more than 100 µM; in [2], 76.4 µM; in [3], more than 100 µM; in [4], more than 100 µM; in [5], more than 100 µM; in assay [6], more than 100 µM. In [7], this compound yielded a TGI of more than 100 µM.

In the case of `COCCOCOc1ccc(OCOCCOC)c2c1C(=O)c1ccccc1C2=O`, the TGI in assay [1], in [2], in [3], in assay [4], in assay [5] and in assay [7] was more than 100 µM in each case.

Consider `Cc1ccc(S(=O)OC2C3CC4CC(C3)CC2C4)cc1` (stereo unspecified), for which the TGI in assay [1], in [3], in assay [4], in [5], in [6] and in assay [7] was more than 100 µM in each case.

Regarding `O=P1(Oc2ccccc2)C(c2ccccc2)C(c2ccccc2)=NN1c1ccccc1` (stereo unspecified), the TGI in [1] is more than 100 µM; in [2] it was 31.6 µM; in [3], 93.8 µM; in assay [4] it was more than 100 µM; in assay [5] it was 69.9 µM; in assay [6], 45.7 µM. For the same compound, the TGI in assay [7] is 44.9 µM.

Consider `O=C(O)/C(Cl)=C(\Cl)C(=O)Nc1ccc(Cl)c(Cl)c1Cl`, for which the TGI in [1] is 34.8 µM; in [2] it was 33.9 µM; in assay [3] it was 35.2 µM; in assay [4] it was 30.9 µM; in assay [5], 38.7 µM; in assay [6] it was 37.9 µM. The TGI in assay [7] is 44.7 µM.

Take `COc1ccc(C(=O)N2c3ccccc3Sc3ccccc32)c(OC)c1`: the GI50 is 0.209 µM in [1]; 0.585 µM in assay [2]; 0.212 µM in assay [8]; 0.482 µM in assay [9]; 0.785 µM in assay [3]; more than 100 µM in [4]. Moreover, the GI50 was 0.926 µM in [5] and 0.491 µM in [10]. Moreover, the TGI in [1] is more than 100 µM; in [2], more than 100 µM; in [8], 0.953 µM; in assay [9] it was more than 100 µM; in [3], more than 100 µM; in assay [4], more than 100 µM. Moreover, the TGI in assay [5] and in assay [10] was more than 100 µM throughout.

`Cc1ccc(NC(=O)c2ccccc2C(=O)O)cc1C`: the TGI in assay [1], in assay [2], in assay [8], in [9], in assay [3] and in assay [4] was more than 100 µM in each case. Further, the TGI in [5] and in [10] was more than 100 µM in each case.

Turning to `Cc1cc(N(CCC#N)CCC#N)ccc1/C=C1N=C(/C=C\c2ccccc2)N(c2ccc(Cl)cc2)C\1=O`, the TGI in assay [1], in [2], in [9], in assay [3], in assay [4] and in assay [5] was more than 100 µM in each case. In addition, the TGI was more than 31.9 µM in assay [7] and more than 100 µM in [10].

In the case of `Cn1c2ccccc2n2c(=O)c3c(c(C#N)c12)CCCC3`, the TGI in assay [1], in [2], in assay [3], in [4], in [5] and in [7] was more than 100 µM each time.

Consider `CN(C)c1ccc(/C=C2\C=Cc3ccccc32)cc1`, for which the TGI is 57 µM in assay [1]; more than 100 µM in [2]; more than 100 µM in assay [3]; more than 100 µM in assay [4]; more than 100 µM in [5]; more than 100 µM in assay [6]. In assay [7], the TGI was more than 100 µM.

For `CNS(=O)(=O)NNS(=O)(=O)c1ccc(Cl)cc1`, the TGI in assay [2], in [3], in assay [4], in assay [5] and in [7] was more than 100 µM each time.

Take `N#CN1CC[C@H](C(=O)Nc2ncc(-c3ccncc3)s2)C1`: the GI50 in assay [1] is less than 0.0148 µM; in [2] it was less than 0.01 µM; in assay [8], less than 0.0148 µM; in assay [9], 0.0948 µM; in assay [3], 0.262 µM; in [4], 0.109 µM. In addition, the GI50 was 0.0351 µM in assay [5] and less than 0.0238 µM in assay [10]. Besides, the TGI in assay [1] was 0.53 µM; in assay [2], 0.0976 µM; in assay [8], 5.52 µM; in assay [9], 4.66 µM; in [3], more than 100 µM; in [4], 6.18 µM. The TGI came to 68.4 µM in [5] and 39.7 µM in assay [10].

Turning to `CCN1C(=O)N(CC)C2C1NN=c1s/c(=C\c3ccccc3Br)c(=O)n12` (stereo unspecified), the GI50 was 0.0262 µM in assay [1]; 0.308 µM in assay [2]; less than 0.0137 µM in assay [8]; 0.0355 µM in assay [9]; 0.0408 µM in assay [3]; 12.5 µM in assay [4]. In addition, the GI50 was 0.0408 µM in assay [5] and 0.0362 µM in assay [10]. Also, the TGI was 2.22 µM in assay [1]; 25.5 µM in assay [2]; 0.0416 µM in [8]; 20.5 µM in assay [9]; more than 75.3 µM in assay [3]; more than 100 µM in assay [4]. In addition, the results for the TGI in assay [5] and in assay [10] were 21.8 µM and more than 38.7 µM, respectively.

For `CCCCn1c(=O)c2c(nc3n2CCCN3CCc2ccc(OCC(=O)NCCN(CC)CC)cc2)n(CCCC)c1=O`, the GI50 in assay [1] is 1.93 µM; in [2], 6.7 µM; in assay [8] it was 5.08 µM; in assay [9], 1.76 µM; in [3], 7.12 µM; in [4] it was 7.26 µM. Further, the GI50 in [5] is 5.83 µM; in assay [10] it was 4.56 µM. The TGI was determined as 10 µM in assay [1]; 15.3 µM in assay [2]; 11.1 µM in assay [8]; 11.2 µM in [9]; 15.4 µM in assay [3]; 14.6 µM in assay [4]. For the same compound, the TGI is 15.4 µM in assay [5] and 35.3 µM in assay [10].
